Measured values published in EP0584797A2, “Novel cephalosporin compounds and processes for the preparation thereof” (LUCKY LTD., priority 1992, dated 1994).
Values after ≈ are worked out from the molar mass of the structure shown.

Columns and labels:
Assay in all cases: minimal inhibitory concentration, two-fold agar dilution
Format in all cases: cell-based
[1] = tested on: Staphylococcus aureus ATCC 10537; details: ATCC10537, Muller-Hinton agar, 37°C, 20 hours, read-out: MIC values against the standard strains
Procedure, shortened: (§1)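 Compounds were serially diluted two-fold into Mueller-Hinton agar, and each plate was spot-inoculated with the test strain at 10⁷ CFU per ml. Plates were incubated at 37°C for 20 hours before MIC values were read.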

[2] = tested on: Pseudomonas aeruginosa ATCC 27853; details: ATCC27853, Muller-Hinton agar, 37°C, 20 hours, read-out: MIC values against the standard strains
Procedure, shortened: as §1

[3] = tested on: Micrococcus luteus ATCC 9341; details: ATCC9341, Muller-Hinton agar, 37°C, 20 hours, read-out: MIC values against the standard strains
Procedure, shortened: as §1

[4] = tested on: Bacillus megaterium ATCC 9885; details: Priestia megaterium, ATCC9885; Muller-Hinton agar; 37°C; 20 hours; read-out: MIC values against the standard strains
Procedure, shortened: as §1

[5] = tested on: Shigella flexneri ATCC 11836; details: ATCC11836, Muller-Hinton agar, 37°C, 20 hours, read-out: MIC values against the standard strains
Procedure, shortened: as §1

[6] = tested on: Staphylococcus aureus ATCC 6538p; details: ATCC6538P, Muller-Hinton agar, 37°C, 20 hours, read-out: MIC values against the standard strains
Procedure, shortened: as §1

[7] = tested on: Escherichia coli ATCC 10536; details: ATCC10536, Muller-Hinton agar, 37°C, 20 hours, read-out: MIC values against the standard strains
Procedure, shortened: as §1

[8] = tested on: Streptococcus faecalis ATCC 29212; details: Enterococcus faecalis, ATCC29212; Muller-Hinton agar; 37°C; 20 hours; read-out: MIC values against the standard strains
Procedure, shortened: as §1

[9] = tested on: Staphylococcus epidermidis ATCC 12228; details: ATCC12228, Muller-Hinton agar, 37°C, 20 hours, read-out: MIC values against the standard strains
Procedure, shortened: as §1

[10] = tested on: Shigella sonnei ATCC 11060; details: ATCC11060, Muller-Hinton agar, 37°C, 20 hours, read-out: MIC values against the standard strains
Procedure, shortened: as §1

[11] = tested on: Escherichia coli ATCC 25922; details: ATCC25922, Muller-Hinton agar, 37°C, 20 hours, read-out: MIC values against the standard strains
Procedure, shortened: as §1

[12] = tested on: Klebsiella pneumoniae ATCC 10031; details: ATCC10031, Muller-Hinton agar, 37°C, 20 hours, read-out: MIC values against the standard strains
Procedure, shortened: as §1

[13] = tested on: Proteus vulgaris ATCC 6059; details: ATCC6059, Muller-Hinton agar, 37°C, 20 hours, read-out: MIC values against the standard strains
Procedure, shortened: as §1

[14] = tested on: Citrobacter freundii ATCC 8090; details: ATCC8090, Muller-Hinton agar, 37°C, 20 hours, read-out: MIC values against the standard strains
Procedure, shortened: as §1

[15] = tested on: Providencia rettgeri ATCC 9250; details: ATCC9250, Muller-Hinton agar, 37°C, 20 hours, read-out: MIC values against the standard strains
Procedure, shortened: as §1

[16] = tested on: Enterobacter cloacae ATCC 27508; details: ATCC27508, Muller-Hinton agar, 37°C, 20 hours, read-out: MIC values against the standard strains
Procedure, shortened: as §1

[17] = tested on: Serratia marcescens ATCC 27117; details: ATCC27117, Muller-Hinton agar, 37°C, 20 hours, read-out: MIC values against the standard strains
Procedure, shortened: as §1

[18] = tested on: Salmonella typhimurium ATCC 14028; details: Salmonella enterica; Muller-Hinton agar; 37°C; 20 hours; read-out: MIC values against the standard strains
Procedure, shortened: as §1

[19] = tested on: Pseudomonas aeruginosa ATCC 10145; details: ATCC10145, Muller-Hinton agar, 37°C, 20 hours, read-out: MIC values against the standard strains
Procedure, shortened: as §1

[20] = tested on: Bacillus cereus ATCC 11778; details: ATCC11778, Muller-Hinton agar, 37°C, 20 hours, read-out: MIC values against the standard strains
Procedure, shortened: as §1

[21] = tested on: Enterobacter aerogenes ATCC 29751; details: Klebsiella aerogenes, ATCC29751; Muller-Hinton agar; 37°C; 20 hours; read-out: MIC values against the standard strains
Procedure, shortened: as §1

[22] = tested on: Proteus mirabilis ATCC 25933; details: ATCC25933, Muller-Hinton agar, 37°C, 20 hours, read-out: MIC values against the standard strains
Procedure, shortened: as §1

[23] = tested on: Acinetobacter calcoaceticus ATCC 15437; details: ATCC15437, Muller-Hinton agar, 37°C, 20 hours, read-out: MIC values against the standard strains
Procedure, shortened: as §1

[24] = tested on: Pseudomonas aeruginosa ATCC 25619; details: ATCC25619, Muller-Hinton agar, 37°C, 20 hours, read-out: MIC values against the standard strains
Procedure, shortened: as §1

[25] = tested on: Morganella morganii ATCC 8076h; details: ATCC8076H, Muller-Hinton agar, 37°C, 20 hours, read-out: MIC values against the standard strains
Procedure, shortened: as §1

| SMILES | MIC [1] | MIC [2] | MIC [3] | MIC [4] | MIC [5] | MIC [6] | MIC [7] | MIC [8] | MIC [9] | MIC [10] | MIC [11] | MIC [12] | MIC [13] | MIC [14] | MIC [15] | MIC [16] | MIC [17] | MIC [18] | MIC [19] | MIC [20] | further results |
| --- | --- | --- | --- | --- | --- | --- | --- | --- | --- | --- | --- | --- | --- | --- | --- | --- | --- | --- | --- | --- | --- |
| CCO/N=C(\C(=O)N[C@@H]1C(=O)N2C(C(=O)[O-])=C(CSc3nc(N)c(N)c(N)[n+]3C)CS[C@H]12)c1csc(N)n1 [Example 3, 7-[(Z)-2-(aminothiazol-4-yl)-2-(ethoxyimino)acetamido]-3-(4,5,6-triamino-1-methylpyrimidinium-2-yl)thiomethyl-3-cephem-4-carboxylate] | 0.25 µg/mL (≈ 0.431 µM) | 4 µg/mL (≈ 6.89 µM) | 0.031 µg/mL (≈ 0.0534 µM) | 0.031 µg/mL (≈ 0.0534 µM) | 0.063 µg/mL (≈ 0.108 µM) | 0.5 µg/mL (≈ 0.861 µM) | 0.063 µg/mL (≈ 0.108 µM) | 64 µg/mL (≈ 110 µM) | 0.13 µg/mL (≈ 0.224 µM) | 0.25 µg/mL (≈ 0.431 µM) | 0.063 µg/mL (≈ 0.108 µM) | ≤ 0.008 µg/mL | 0.25 µg/mL (≈ 0.431 µM) | 0.063 µg/mL (≈ 0.108 µM) | ≤ 0.008 µg/mL | 0.016 µg/mL (≈ 0.0276 µM) | 0.25 µg/mL (≈ 0.431 µM) | 0.5 µg/mL (≈ 0.861 µM) | 8 µg/mL (≈ 13.8 µM) | 32 µg/mL (≈ 55.1 µM) | MIC [21]: 0.5 µg/mL (≈ 0.861 µM); MIC [22]: 0.25 µg/mL (≈ 0.431 µM); MIC [23]: 8 µg/mL (≈ 13.8 µM); MIC [24]: 0.5 µg/mL (≈ 0.861 µM); MIC [25]: ≤ 0.008 µg/mL |
| CO/N=C(\C(=O)N[C@@H]1C(=O)N2C(C(=O)[O-])=C(CSc3nc(N)cc[n+]3C)CS[C@H]12)c1csc(N)n1 [Example 8, 7-[(Z)-2-(2-aminothiazol-4-yl)-2-(methoxyimino)acetamido]-3-(4-amino-1-methylpyrimidinium-2-yl)thiomethyl-3-cephem-4-carboxylate] | 0.25 µg/mL (≈ 0.466 µM) | 64 µg/mL (≈ 119 µM) | 0.13 µg/mL (≈ 0.242 µM) | 0.13 µg/mL (≈ 0.242 µM) | 0.063 µg/mL (≈ 0.117 µM) | 0.5 µg/mL (≈ 0.932 µM) | 0.063 µg/mL (≈ 0.117 µM) | 64 µg/mL (≈ 119 µM) | 0.13 µg/mL (≈ 0.242 µM) | 0.13 µg/mL (≈ 0.242 µM) | 0.063 µg/mL (≈ 0.117 µM) | 0.016 µg/mL (≈ 0.0298 µM) | 0.25 µg/mL (≈ 0.466 µM) | 0.063 µg/mL (≈ 0.117 µM) | ≤ 0.008 µg/mL | ≤ 0.008 µg/mL | 0.25 µg/mL (≈ 0.466 µM) | 0.25 µg/mL (≈ 0.466 µM) | 64 µg/mL (≈ 119 µM) | 64 µg/mL (≈ 119 µM) | MIC [21]: ≤ 0.008 µg/mL; MIC [22]: 0.25 µg/mL (≈ 0.466 µM); MIC [23]: 8 µg/mL (≈ 14.9 µM); MIC [24]: 8 µg/mL (≈ 14.9 µM); MIC [25]: ≤ 0.008 µg/mL |
| CCO/N=C(\C(=O)N[C@@H]1C(=O)N2C(C(=O)[O-])=C(CSc3nc(N)cc[n+]3CC)CS[C@H]12)c1csc(N)n1 [Example 14, 7-[(Z)-2-(2-aminothiazol-4-yl)-2-(ethoxyimino)acetamido]-3-(4-amino-1-ethylpyrimidinium-2-yl)thiomethyl-3-cephem-4-carboxylate] | 0.25 µg/mL (≈ 0.443 µM) | 32 µg/mL (≈ 56.7 µM) | 0.25 µg/mL (≈ 0.443 µM) | 0.25 µg/mL (≈ 0.443 µM) | 0.25 µg/mL (≈ 0.443 µM) | 0.5 µg/mL (≈ 0.885 µM) | 0.13 µg/mL (≈ 0.23 µM) | > 128 µg/mL | 0.25 µg/mL (≈ 0.443 µM) | 0.25 µg/mL (≈ 0.443 µM) | 0.063 µg/mL (≈ 0.112 µM) | 0.13 µg/mL (≈ 0.23 µM) | 2 µg/mL (≈ 3.54 µM) | 0.13 µg/mL (≈ 0.23 µM) | 0.063 µg/mL (≈ 0.112 µM) | 0.13 µg/mL (≈ 0.23 µM) | 1 µg/mL (≈ 1.77 µM) | 1 µg/mL (≈ 1.77 µM) | 64 µg/mL (≈ 113 µM) | 32 µg/mL (≈ 56.7 µM) | MIC [21]: 1 µg/mL (≈ 1.77 µM); MIC [22]: 2 µg/mL (≈ 3.54 µM); MIC [23]: 16 µg/mL (≈ 28.3 µM); MIC [24]: 8 µg/mL (≈ 14.2 µM); MIC [25]: 0.13 µg/mL (≈ 0.23 µM) |
